Results from article PMC6568278 (Chemical Science, 2019).

Key:
Assay type in all cases: cell-based
NF-κB = settings: HEK-293/NF-κB-luc cells
rat aortic VSMCs = assay: PDGF-induced VSMC proliferation; settings: PDGF-activated rat aortic VSMCs
human umbilical vein ECs = assay: Endothelial cell; settings: 30 μM

| SMILES | NF-κB inhibition (in words) (NF-κB) | VSMC proliferation inhibition (in words) (rat aortic VSMCs) | EC proliferation inhibition (in words) (human umbilical vein ECs) |
| --- | --- | --- | --- |
| COc1ccc([C@H]2OC[C@H](Cc3ccc(C(C)(C)C)cc3)[C@@H]2CO)cc1OC [7b, ((2S,3R,4R)-4-(4-(tert-Butyl)benzyl)-2-(3,4-dimethoxyphenyl)tetrahydrofuran-3-yl)methanol] | inactive | much more active |  |
| COc1ccc(C[C@H]2CO[C@H](c3ccc(OC)c(OC)c3)[C@H]2COC(=O)C=C(C)C)cc1OC [1b, ((2S,3R,4R)-4-(3,4-Dimethoxybenzyl)-2-(3,4-dimethoxyphenyl)tetrahydrofuran-3-yl)methyl 3-methylbut-2-enoate] | much more suppressive effect | remained unaffected |  |
| COc1ccc(C[C@H]2CO[C@H](c3ccc(OC)c(OC)c3)[C@H]2COC(=O)CC(C)C)cc1OC [1c] | similarly strong inhibition to 1b | no effect |  |
| C/C=C(/C)C(=O)OC[C@H]1[C@@H](Cc2ccc(C(F)(F)F)cc2)CO[C@@H]1c1ccc(F)cc1 [1j, (Z)-((2S,3R,4R)-2-(4-Fluorophenyl)-4-(4-(trifluoromethyl)benzyl)tetrahydrofuran-3-yl)methyl 2-methylbut-2-enoate] | no inhibition |  | no inhibition |
